From US20250248979A1, “NOVEL GPX4 INHIBITORS AND USES THEREOF” (THE TRUSTEES OF COLUMBIA UNIVERSITY IN THE CITY OF NEW YORK, priority 2022, published 2025)
Positions count from the first letter of the chain named. Entries after “also recorded” stand apart in the source; their conditions may differ. Where two headings read alike, the source gives them in different places.

Legend:
[1] = system: Salmonella typhimurium TA98, TA100, TA1535, TA1537
[2] = target: panel of 44 targets (GPCRs, ion channels, enzymes, transporters, nuclear receptors)
HT-1080 cells = assay: Cellular dose response assay, HT-1080 with and without Fer-1; format: cell-based, human; settings: for ferroptosis induction / potency in HT-1080 cells, result in words: RSL3 as control
How it was run: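 Dose-response over 12 twofold concentrations, 48 h exposure, 0.4% DMSO, in cells seeded at 1500 per well overnight. HT-1080 also run plus Fer-1. Endpoint: CellTiter-Glo luminescence.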

HepG2 cells = assay: Cellular dose response assay, HepG2; format: cell-based, human
Text: HT-1080 (human [Homo sapiens] […] fibrosarcoma), A-673 (human [Homo sapiens] […] Ewing's sarcoma), and SK-HEP-1 (human [Homo sapiens] […] hepatic adenocarcinoma), cells were obtained from ATCC. Huh7 (human [Homo sapiens] […] hepatocellular carcinoma), HLF (human [Homo sapiens] […] hepatocellular carcinoma), HepG2 (human [Homo sapiens] […] hepatocellular carcinoma), cells were obtained from the Cancer Cell Bank at Columbia University Irving Medical Center. HT-1080, A-673, Huh-7, and HLF cells were grown in Dulbecco's Modified Eagle Medium (DMEM) supplemented with 10% heat inactivated fetal bovine serum (HI-FBS), 1% non-essential amino acids, and 1% penicillin streptomycin. HepG2 and SK-HEP-1 cells were grown in Eagle's Minimum Essential Medium (EMEM) supplemented with 10% HI-FBS, and 1% penicillin-streptomycin. All cells were cultured at 37° C. and 5% CO2.
HT-1080, HepG2, Huh7, HLF, and SK-HEP-1 cells were seeded into opaque white 384-well plates at 1500 cells per well then incubated at 37° C. with 5% CO2 overnight. The next day, compounds of interest were dissolved in DMSO and 12-point 2-fold dilution series were prepared with and without Fer-1. Cells were treated in triplicate (final DMSO concentration of 0.4% in all wells, including DMSO-only control wells) and incubated for a further 48 hours at 37° C. and 5% CO2. Cell viability was evaluated using CellTiter-Glo (Promega G7573) and luminescence was recorded on a Victor 5 plate reader. Data were analyzed in GraphPad Prism 9 and error bars represent standard deviation values for three technical replicates in a representative experiment.

[3] = system: lipid peroxidation in HT-1080 cells; assay: C11-BODIPY lipid peroxidation flow cytometry assay; format: cell-based, human; settings: HT-1080 cells, with and without fer-1
GPX4 = target: T1, GPX4 (Homo sapiens, UniProt P36969); assay: GPX4 activity assay in cell lysates (NADPH-coupled); format: biochemical; parameters: endogenous in cells; host or cells: A-673 cell lysate; settings: for GPX4% inhibition at 200 (μM): mean ± s.d., n = 3
T1 sequence (P36969 1-170 isoform P36969-2): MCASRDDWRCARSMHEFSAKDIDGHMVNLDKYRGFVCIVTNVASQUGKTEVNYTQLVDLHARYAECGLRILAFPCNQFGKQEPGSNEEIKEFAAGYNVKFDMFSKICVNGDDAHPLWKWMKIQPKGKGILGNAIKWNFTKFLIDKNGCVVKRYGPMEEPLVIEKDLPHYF
How it was run: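 Native GPX4 in lysates of A-673 cells grown with 20 nM sodium selenite; lysate preincubated with compound 45 min at 37 °C in pH 8.0 buffer with 3 mM GSH, 0.5 mM NADPH and glutathione reductase. Reaction started with phosphatidylcholine hydroperoxide; NADPH consumption followed at 340 nm over 25 min; triplicates.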

GPX4^U46C = target: T2, GPX4^U46C (Homo sapiens, UniProt P36969, U73C); assay: Microscale thermophoresis (MST) binding; settings: half maximal effective concentration, covalent mechanism
T2 construct: made in house; host or cells: E. coli BL21-Gold (DE3)
T2 sequence (P36969 1-170 isoform P36969-2 U46C): T1 sequence (P36969 1-170 isoform P36969-2) with U46C
Method: The bacterial expression vector pET-15b-His-tagged-c-GPX4^U46C was prepared as previously described (Yang et al. 2016). The C-terminal His-tagged GPX4U46C protein was expressed in E. coli and purified according to a protocol modified from Scheerer et al. 2007. First, pET-15b-His-tagged-c-GPX4^U46C was transformed into XL10-Gold (Agilent #200314) E. coli ultracompetent cells for plasmid DNA production and isolated using QIAprep Spin Miniprep Kit (Qiagen). For protein expression, pET-15b-His-tagged-c-GPX4^U46C was then transformed into BL21-Gold (DE3) E. coli competent cells (Agilent #230132) and plated on LB agar with 100 μg/mL ampicillin. A starter culture was inoculated in 7 mL of LB medium with 100 μg/mL ampicillin using a single colony and allowed to grow in a 37° C. shaker (225 rpm) for 16 hours. 3 mL of the starter culture was added to 1 L of LB medium with 100 μg/mL ampicillin, which was then incubated in a 37° C. shaker (225 rpm) to an OD600 of 0.9. At that point, the incubation temperature was reduced to 15° C. and the culture was allowed to equilibrate for 1 hour. Expression of the recombinant enzyme was induced by addition of isopropyl β-D-1-thiogalactopyranoside (IPTG, 1 mM final concentration) overnight for 12-15 hours shaking at 225 rpm and 15° C. The next morning, cells were harvested by centrifugation at 4000 rpm and 4° C. for 20 minutes. The cell pellet was then frozen at −80° C. for at least 1 hour or until lysis. To lyse the cells, the cell pellet was resuspended with 25 mL of chilled lysis buffer (100 mM Tris pH 8.0, 300 mM NaCl, 20 mM imidazole, 3 mM TCEP, and 2.5 mini tablets of complete Protease Inhibitor Cocktail (Roche-Sigma #11836170001)) then lysed using an Emulsiflex C3 high-pressure homogenizer. To remove cell debris, the lysate was subjected to centrifugation at 10000 rpm and 4° C. for 20 minutes. The supernatant was centrifuged once more at the same conditions, then the clarified lysate was applied onto a 5-mL HisTrap HP column (Cytiva #17-5248-01), washed with 90% Buffer A (100 mM Tris pH 8.0, 300 mM NaCl, 5% glycerol, 3 mM TCEP) 10% Buffer B (Buffer A with 500 mM imidazole), then eluted with a continuous gradient (10-100% Buffer B). The protein was concentrated using Amicon Ultra-15 centrifugal filter units with a 10 kDa molecule weight cutoff (EMD Millipore #UFC901024) then further purified by FPLC on a size exclusion HiLoad Superdex 200 column (Cytiva) in crystallization buffer (20 mM Tris pH 8.0, 300 mM NaCl, 3 mM TCEP). The fractions containing 90-95% pure GPX4 protein, as evaluated by SDS-PAGE, were pooled and concentrated using the same Amicon centrifugal filter units as above to 5 mg/mL. Concentration was determined by Nanodrop. Protein was aliquoted into Eppendorf tubes, flash frozen using liquid nitrogen, and stored at −80° C. until use.
MST experiments were conducted using a Monolith NT.115 (Nanotemper Technologies) according to manufacturer instructions. To label the protein, 90 μL of 200 nM GPX4^U46C was combined with 90 μL of 100 nM RED-tris-NTA dye diluted in PBS buffer with 0.05% Tween 20 (PBST buffer). The mixture was incubated for 30 minutes at room temperature, followed by centrifugation for 10 minutes at 4° C. and 15,000×g. To assess binding of the compounds, a 16-point 2-fold dilution series in PBST buffer was prepared and mixed in a 1:1 ratio with the labeled protein solution for a final volume of 20 μL. The reaction mixture was loaded into standard treated capillary tubes and analyzed with the Monolith NT.115 at 40% LED power and 40% MST power with a laser-on time of 5 seconds. The data were analyzed in MO.Affinity Analysis v2.3 software.

in vitro [4] = format: in vitro ADME, human; settings: human, microsomes
Method: (§1) […]. The incubation timepoints measured were 0, 5, 10, 15, 30, and 45 minutes. All samples were prepared in duplicate and analyzed by LC-MS/MS.

in vitro [5] = format: in vitro ADME, mouse; settings: mouse, microsomes
Method: as §1

[6] = not given; remark: listed apart in the source
[7] = read-out: IC50 (M) Reference Compound (EC50 for agonist)

## CN(N=O)C(=O)N[C@H]1C(O)O[C@H](CO)[C@@H](O)[C@@H]1O (mixture of isomers) [Streptozotocin]
[1]; 2.5 μM
  Positive Significance (− to +++) TA98 − S9: + (Weak positive, if p < 0.05)
  Positive Significance (− to +++) TA100 + S9: +++ (Very strong positive, if p < 0.001)
  Positive Significance (− to +++) TA1535 + S9: +++ (Very strong positive, if p < 0.001)
[1]; TA100, − S9, 2.5 μM
  Positive Significance (− to +++) TA100 − S9: +++ (Very strong positive, if p < 0.001)
[1]; TA1535, − S9, 2.5 μM
  Positive Significance (− to +++) TA1535 − S9: +++ (Very strong positive, if p < 0.001)

## Nc1ccc2cc3ccccc3cc2c1 [Compound 2-Aminoanthracene, 2-Aminoanthracene]
[1]; 1 μM
  Positive Significance (− to +++) TA98 + S9: +++ (Very strong positive, if p < 0.001)
  Positive Significance (− to +++) TA100 + S9: +++ (Very strong positive, if p < 0.001)
  Positive Significance (− to +++) TA1535 + S9: ++ (Strong positive, if p < 0.01)
  Positive Significance (− to +++) TA1537 + S9: +++ (Very strong positive, if p < 0.001)

## O=[N+]([O-])c1ccc2c(c1)Cc1ccccc1-2 [Compound 2-Nitrofluorene, 2-Nitrofluorene]
[1]; 30 μM
  Positive Significance (− to +++) TA98 + S9: +++ (Very strong positive, if p < 0.001)
  Positive Significance (− to +++) TA98 − S9: +++ (Very strong positive, if p < 0.001)

## Nc1c2ccccc2nc2ccccc12 [Compound 9-Aminoacridine, 9-Aminoacridine]
[1]; 10 μM
  Positive Significance (− to +++) TA1537 + S9: ++ (Strong positive, if p < 0.01)
[1]; TA1537, − S9, 10 μM
  Positive Significance (− to +++) TA1537 − S9: +++ (Very strong positive, if p < 0.001)

## Clc1ccc(C2CC3CCC2N3)cn1 (stereo not drawn) [Epibatidine]
[2]; [7]
  EC50: 2.5e-09 M

## C[C@]12N[C@H](Cc3ccccc31)c1ccccc12 [MK-801]
[2]; [7]
  IC50: 2.75e-08 M

## CNC1(C)C2CCC(C2)C1(C)C (stereo not drawn) [Mecamylamine]
[2]; read-out: IC50 (M) Reference Compound
  IC50: 8.31e-07 M
[2]; [7]
  IC50: 6.8e-07 M

## Cn1c(C(=O)n2ccnc2)cc2ccccc21 [QW-057]
HT-1080 cells
  ferroptosis induction / potency in HT-1080 cells, result in words: no fer-1 rescue was observed
HT-1080 cells; compounds alone, read-out: IC50 (μM) HT1080^a
  IC50: 64 µM
HT-1080 cells; compounds and fer-1 1.0 μM, read-out: IC50 (μM) HT1080^b
  IC50: 64.2 µM
HepG2 cells; compounds alone, read-out: IC50 (μM) HEPG2^a
  IC50: 97.7 µM
HepG2 cells; compounds and fer-1 1.0 μM, read-out: IC50 (μM) HEPG2^b
  IC50: 82.6 µM
[3]
  lipid peroxidation (C11-BODIPY), result in words: did not induce lipid peroxidation
GPX4; 200 uM
  fold increase in GPX4 inhibitory activity in comparison to LOC1886: ~2 fold
GPX4
  GPX4% inhibition at 200 (μM): 59.8 ± 12.5%

## COc1cccc2[nH]c(C(=O)NC(C)(C)COC(=O)CCl)cc12 [QW-144]
GPX4^U46C
  EC50: 836 nM
GPX4; generation 1
  GPX4% inhibition at 200 (μM): 50.0 ± 32.5%

## Cc1ccc2[nH]c(C(=O)NC(C)(C)COC(=O)CCl)cc2c1 [QW-155]
GPX4^U46C
  EC50: 473000 nM
GPX4; generation 1
  GPX4% inhibition at 200 (μM): 50.9 ± 3.6%

## CC(C)(COC(=O)CCl)NC(=O)c1cc2cc(Cl)ccc2[nH]1 [QW-164]
GPX4^U46C
  EC50: 2100 nM
GPX4; generation 1
  GPX4% inhibition at 200 (μM): 53.3 ± 37.8%

## Cn1nc(C(=O)NC(C)(C)CNC(=O)CCl)c2ccc(Br)cc21 [QW-624]
[3]
  lipid peroxidation (C11-BODIPY), result in words: still active in lipid peroxidation assay
In vitro [4]
  Microsome Stability t1/2 (min) human: 8.8 min
In vitro [5]
  Microsome Stability t1/2 (min) mouse: 1.2 min
other
  Plasma Stability t1/2 (min) human: 142 min
[6]
  Plasma Stability t1/2 (min) mouse: 685 min
GPX4; generation 2
  GPX4% inhibition at 2.5 μM: −9.6 ± 4.4%

## CCOc1ccc(-c2ccc3c(C(=O)NC(C)(C)COC(=O)CCl)nn(C)c3c2)cc1Cl [QW-655]
HT-1080 cells; HT1080 + Fer-1, read-out: IC50 (uM) HT1080 + Fer-1
  IC50: 15.6 µM
HT-1080 cells; HT1080, without Fer-1, read-out: IC50 (uM) HT1080
  IC50: 0.7 µM
HT-1080 cells
  ferroptosis induction / potency in HT-1080 cells, result in words: sub-micromolar GI50 value; also recorded: sub-molar range cellular activities and decreased ferroptosis selectivity
HT-1080 cells; ferroptosis selectivity, HT1080 + Fer-1 vs HT1080
  Selectivity: 22.3
Plasma stability, human
  Plasma Stability t1/2 (min) human: 16.8 min
Plasma stability, mouse
  Plasma Stability t1/2 (min) mouse: 2.6 min
GPX4
  GPX4 inhibitory activity, result in words: greatest potency; also recorded: slightly higher potencies than their parent compound
  GPX4% inhibition at 2.5 μM: 106.9 ± 5.6%
